{"source": "patent US9302991B2", "about": "“Arylamide derivatives as TTX-S blockers” (RaQualia Pharma Inc., priority 2010, dated 2016)", "key": {"human Nav1.5 channels": {"biological_target": "T1, human Nav1.5 channels (Homo sapiens, UniProt Q14524)", "T1 construct": "expressed in transfected cells; host or cells: HEK293", "T1 sequence (Q14524 whole entry)": "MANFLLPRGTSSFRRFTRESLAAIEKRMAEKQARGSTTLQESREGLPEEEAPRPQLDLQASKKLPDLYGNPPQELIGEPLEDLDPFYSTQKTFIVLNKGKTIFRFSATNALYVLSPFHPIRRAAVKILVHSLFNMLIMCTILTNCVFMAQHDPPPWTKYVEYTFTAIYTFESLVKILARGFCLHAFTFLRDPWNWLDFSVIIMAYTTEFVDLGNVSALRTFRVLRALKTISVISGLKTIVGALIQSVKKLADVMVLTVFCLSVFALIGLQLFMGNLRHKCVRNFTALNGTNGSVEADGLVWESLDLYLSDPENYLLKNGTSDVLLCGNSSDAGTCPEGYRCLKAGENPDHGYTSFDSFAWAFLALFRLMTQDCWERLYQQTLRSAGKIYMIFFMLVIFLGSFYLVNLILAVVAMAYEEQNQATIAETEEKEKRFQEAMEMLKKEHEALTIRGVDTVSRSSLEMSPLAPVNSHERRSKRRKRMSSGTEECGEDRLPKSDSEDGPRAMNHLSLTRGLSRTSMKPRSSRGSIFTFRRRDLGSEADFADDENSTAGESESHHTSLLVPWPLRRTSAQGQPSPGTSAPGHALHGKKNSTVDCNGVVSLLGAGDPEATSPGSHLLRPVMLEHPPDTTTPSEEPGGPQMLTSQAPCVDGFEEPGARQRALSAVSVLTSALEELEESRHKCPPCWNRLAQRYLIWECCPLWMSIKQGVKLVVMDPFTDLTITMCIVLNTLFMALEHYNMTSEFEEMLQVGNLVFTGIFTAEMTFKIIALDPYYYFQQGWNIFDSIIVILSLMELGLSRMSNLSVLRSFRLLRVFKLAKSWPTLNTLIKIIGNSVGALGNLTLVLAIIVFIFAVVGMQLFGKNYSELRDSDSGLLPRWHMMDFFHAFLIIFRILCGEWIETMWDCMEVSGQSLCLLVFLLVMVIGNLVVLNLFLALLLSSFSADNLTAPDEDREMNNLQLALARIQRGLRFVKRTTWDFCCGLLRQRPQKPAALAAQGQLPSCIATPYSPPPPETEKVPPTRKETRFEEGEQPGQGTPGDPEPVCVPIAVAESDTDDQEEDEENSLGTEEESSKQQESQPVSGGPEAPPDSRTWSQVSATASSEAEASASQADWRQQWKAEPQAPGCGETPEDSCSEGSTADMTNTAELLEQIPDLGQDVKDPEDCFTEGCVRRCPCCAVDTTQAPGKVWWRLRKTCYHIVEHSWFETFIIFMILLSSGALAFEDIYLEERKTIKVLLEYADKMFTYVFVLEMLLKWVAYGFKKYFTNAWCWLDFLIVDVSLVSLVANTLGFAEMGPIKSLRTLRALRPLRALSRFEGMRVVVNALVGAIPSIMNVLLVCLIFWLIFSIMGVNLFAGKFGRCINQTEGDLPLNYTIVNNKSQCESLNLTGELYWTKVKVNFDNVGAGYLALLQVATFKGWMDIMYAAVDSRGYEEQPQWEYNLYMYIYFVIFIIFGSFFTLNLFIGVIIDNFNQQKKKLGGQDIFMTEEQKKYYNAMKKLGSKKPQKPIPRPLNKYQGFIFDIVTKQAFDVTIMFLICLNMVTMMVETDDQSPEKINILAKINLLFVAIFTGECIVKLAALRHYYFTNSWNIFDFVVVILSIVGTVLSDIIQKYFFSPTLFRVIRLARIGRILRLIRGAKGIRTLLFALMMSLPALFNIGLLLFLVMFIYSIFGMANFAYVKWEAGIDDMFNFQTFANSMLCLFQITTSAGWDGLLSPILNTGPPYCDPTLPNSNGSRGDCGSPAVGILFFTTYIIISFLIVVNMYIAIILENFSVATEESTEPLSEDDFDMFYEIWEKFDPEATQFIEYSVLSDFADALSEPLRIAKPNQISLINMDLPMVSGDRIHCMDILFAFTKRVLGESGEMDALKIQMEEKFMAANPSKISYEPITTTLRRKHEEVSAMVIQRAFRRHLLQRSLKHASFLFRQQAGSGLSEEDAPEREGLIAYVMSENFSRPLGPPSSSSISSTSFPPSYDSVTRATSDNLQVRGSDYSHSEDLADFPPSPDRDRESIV", "assay": "FRET assay, human Nav1.5 (EFS on FDSS)", "type": "cell-based", "conditions": "HEK293 cells expressing human Nav1.5, read-out: activities against Nav1.5", "method": "The inhibitory activities of compounds against voltage gated sodium channels are determined by methodology well known in the art.\nThe ability of the aryl substituted carboxamide derivatives of the formula (I) to inhibit the NaV1.3, Nav1.7 and Nav1.5 channels is measured by Fluorescence Resonance Energy Transfer (FRET) assay and electrophysiology assay described below.\nThis screen is used to determine the effects of compounds on human Nav1.3, human Nav1.7, and human Nav1.5 channels, utilising electrical field stimulation (EFS) system in 96-well plate format on FDSS (Hamamatsu Photonics) platform. The change of membrane potential is monitored with FRET dye pair, oxonol (DiSBAC2(3)) and coumarin (CC2-DMPE).\nEach HEK293 cells expressing human Nav1.3 channels and HEK293 cells expressing human Nav1.5 channels are grown in T225 flasks, in a 5% CO2 humidified incubator to about 80% confluence. Media composition consists of Dulbecco's Modified Eagle Medium (high glucose), 10% FCS, 100 units/mL Penicillin, 100 microgram/mL Streptomycin and 500 microgram/mL Geneticine. […]\nThe data are analyzed and reported as normalized ratios of intensities measured at […]. […]\nThis analysis is performed using a computerized specific program designed for FDSS generated data. Fluorescence ratio values are plotted using XLfit to determine an IC50 value for each compound."}, "[1]": {"tested_on": "CFA-induced thermal hyperalgesia in rats", "assay": "Complete Freund's Adjuvant (CFA)-induced thermal hyperalgesia in rats", "type": "in vivo, Sprague-Dawley rats", "conditions": "30 mg/kg per os", "method": "Complete Freund's Adjuvant (CFA)-Induced Thermal Hyperalgesia in Rats\nMale Sprague-Dawley rats at 6 weeks old are purchased from Charles River Japan Inc., and housed in groups of two per cage under a 12-h light/dark cycle (lights on at 07:00) with access to food and water ad libitum. CFA-induced thermal hyperalgesia is assessed using the plantar test apparatus (Ugo Basile) as described by Hargreaves K et al. (Pain 1988, 32: 77-88). The animals are placed in an apparatus consisting of individual testing box on an elevated glass table and allowed to acclimate for at least 10 minutes. Following the habituation, a mobile radiant heat source is located under the table and heat stimulation is applied to the plantar surface of the right hind paw. The latency to remove its hind paw is defined as paw withdrawal latency (PWL) in sec. The cut-off point is set at 30 seconds to prevent tissue damage. CFA is prepared at a concentration of 2-3 mg/mL of Mycobacterium tuberculosis H37 RA in liquid paraffin. After disinfections with 70% ethanol, the rats are injected intraplantarly with 100 microL of CFA (200-300 microgram) into the right hind paw. Two days after CFA injection, PWL is measured in the same manner as mentioned above. […] The PWL is measured at the appropriated time after compound administration. […]"}, "human Nav1.3 channels": {"biological_target": "T2, human Nav1.3 channels (Homo sapiens, UniProt Q9NY46)", "T2 construct": "expressed in transfected cells; host or cells: HEK293", "T2 sequence (Q9NY46 whole entry)": "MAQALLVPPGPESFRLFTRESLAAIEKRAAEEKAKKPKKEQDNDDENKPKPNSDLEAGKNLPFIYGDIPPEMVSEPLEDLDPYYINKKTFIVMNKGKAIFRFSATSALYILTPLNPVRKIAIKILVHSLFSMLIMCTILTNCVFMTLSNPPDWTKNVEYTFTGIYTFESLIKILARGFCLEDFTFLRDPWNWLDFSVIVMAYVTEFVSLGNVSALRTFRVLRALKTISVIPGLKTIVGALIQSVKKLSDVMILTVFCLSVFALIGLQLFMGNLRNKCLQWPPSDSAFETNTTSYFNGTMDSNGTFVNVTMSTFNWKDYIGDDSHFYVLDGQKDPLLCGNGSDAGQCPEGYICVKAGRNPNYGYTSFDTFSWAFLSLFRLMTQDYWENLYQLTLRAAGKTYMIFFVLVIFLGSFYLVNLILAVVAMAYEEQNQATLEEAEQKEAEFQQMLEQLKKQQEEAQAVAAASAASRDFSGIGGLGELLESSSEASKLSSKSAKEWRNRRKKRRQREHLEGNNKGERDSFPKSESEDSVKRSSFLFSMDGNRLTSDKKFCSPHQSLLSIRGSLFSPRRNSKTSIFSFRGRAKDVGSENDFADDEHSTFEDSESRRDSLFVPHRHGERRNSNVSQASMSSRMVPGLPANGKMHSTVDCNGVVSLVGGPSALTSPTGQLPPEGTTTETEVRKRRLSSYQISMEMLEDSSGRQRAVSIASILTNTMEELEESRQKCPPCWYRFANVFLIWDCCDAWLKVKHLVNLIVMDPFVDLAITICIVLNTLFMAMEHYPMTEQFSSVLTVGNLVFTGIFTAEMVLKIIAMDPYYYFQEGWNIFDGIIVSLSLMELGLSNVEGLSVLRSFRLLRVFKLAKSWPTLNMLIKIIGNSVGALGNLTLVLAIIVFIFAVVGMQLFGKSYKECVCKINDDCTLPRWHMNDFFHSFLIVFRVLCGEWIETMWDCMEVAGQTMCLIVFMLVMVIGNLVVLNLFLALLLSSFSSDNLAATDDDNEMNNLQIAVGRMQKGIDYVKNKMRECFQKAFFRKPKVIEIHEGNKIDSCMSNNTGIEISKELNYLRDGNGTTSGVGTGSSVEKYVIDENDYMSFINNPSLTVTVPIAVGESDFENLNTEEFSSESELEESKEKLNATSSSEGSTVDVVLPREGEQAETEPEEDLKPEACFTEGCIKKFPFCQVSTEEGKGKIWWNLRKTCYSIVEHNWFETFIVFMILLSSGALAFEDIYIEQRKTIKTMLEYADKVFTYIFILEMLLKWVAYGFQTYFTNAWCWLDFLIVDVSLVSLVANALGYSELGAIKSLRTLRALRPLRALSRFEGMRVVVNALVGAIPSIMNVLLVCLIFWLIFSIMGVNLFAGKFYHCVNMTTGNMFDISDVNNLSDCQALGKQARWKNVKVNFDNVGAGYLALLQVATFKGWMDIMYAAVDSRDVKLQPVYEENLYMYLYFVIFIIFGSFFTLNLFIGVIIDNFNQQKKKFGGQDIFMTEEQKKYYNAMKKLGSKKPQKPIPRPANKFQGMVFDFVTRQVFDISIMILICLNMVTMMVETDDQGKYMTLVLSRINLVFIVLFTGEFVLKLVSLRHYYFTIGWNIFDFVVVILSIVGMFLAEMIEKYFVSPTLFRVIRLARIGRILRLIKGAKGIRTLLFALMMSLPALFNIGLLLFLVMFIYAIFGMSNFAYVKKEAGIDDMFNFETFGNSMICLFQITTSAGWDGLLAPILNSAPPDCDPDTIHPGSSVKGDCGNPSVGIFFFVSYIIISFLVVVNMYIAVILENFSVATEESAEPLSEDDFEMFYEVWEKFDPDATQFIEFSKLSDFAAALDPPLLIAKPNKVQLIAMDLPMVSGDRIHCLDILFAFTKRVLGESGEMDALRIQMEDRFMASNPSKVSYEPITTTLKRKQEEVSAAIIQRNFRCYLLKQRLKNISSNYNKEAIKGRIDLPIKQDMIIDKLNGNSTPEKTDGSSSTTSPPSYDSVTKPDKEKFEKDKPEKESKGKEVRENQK", "assay": "FRET assay, human Nav1.3 (EFS on FDSS)", "type": "cell-based", "conditions": "HEK293 cells expressing human Nav1.3, read-out: IC50 against Nav1.3", "outline": "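HEK293 cells expressing the channel, loaded with 10 microM CC2-DMPE then 15 microM DiSBAC2(3) plus 0.555 mM VABSC-1 in pH 7.4 HEPES buffer at room temperature. Membrane potential changes evoked by electrical field stimulation after compound addition; IC50 from 440 nm-normalized FRET ratios.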"}}}
{"smiles": "CC(=O)Nc1cc(C(=O)NC(C)c2ccc(OCC(F)(F)F)nc2)ccn1", "note": "(single isomer, unassigned; (-)) [Example 1, (−)-2-acetamido-N-(1-(6-(2,2,2-trifluoroethoxy)pyridin-3-yl)ethyl)isonicotinamide]", "values": [{"measurement": "IC50", "setting": "human Nav1.5 channels", "result": "> 30000", "unit": "nM"}, {"measurement": "activity in CFA-induced thermal hyperalgesia (PWL)", "setting": "[1]", "result": "significant activity"}, {"measurement": "IC50", "setting": "human Nav1.3 channels", "result": 2800, "unit": "nM"}]}
